compound: CC1(C)CNc2cc(NC(=O)c3cccnc3NCc3ccncc3)ccc21 [Motesanib] + Nc1nc2[nH]cc(CCc3ccc(C(=O)N[C@@H](CCC(=O)O)C(=O)O)cc3)c2c(=O)[nH]1 [Pemetrexed] (partner 0.2 µM); experiment: relative viability (nuclei count vs DMSO), 5 days (fraction); higher = more cells survive; settings: first compound 1 µM
In short: (§1)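 Lung cancer cell lines, seeded in 1536-well plates, were treated the following day by pin tool with a single drug or with five library-drug doses (not always all listed) in √10 steps on top of a fixed anchor-drug dose. Cells were fixed and nuclei stained in one step after 5 days, and nuclei were counted. Relative viability is the nuclei count for treated wells divided by that for vehicle wells, reported as medians of duplicate plates.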

Compared with NCI-H2085, HCC-366 is lower in relative viability: 0.892 for the first, 0.143 for the second.

Going from NCI-H1666 to NCI-H596, the relative viability falls from 0.824 to 0.358.

First: LK-2
Second: NCI-H2087
The relative viability of the first is lower: 0.171 for the first, 0.605 for the second.

Compared with NCI-H1648, SK-MES-1 is higher in relative viability: 0.547 for the first, 1.02 for the second.

Going from H3255 to COR-L23, the relative viability falls from 0.587 to 0.184.

Going from COR-L 105 to LOU-NH91, the relative viability falls from 1.33 to 0.382.

Going from NCI-H2170 to HCC-44, the relative viability rises from 0.253 to 0.605.

Going from NCI-H522 to SW 900, the relative viability falls from 1.03 to 0.303.

First: NCI-H1395
Second: NCI-H1792
The relative viability of the first is higher: 0.765 for the first, 0.711 for the second.

Compared with NCI-H1793, NCI-H1563 is lower in relative viability: 0.853 for the first, 0.794 for the second.

Compared with NCI-H1944, NCI-H358 is lower in relative viability: 0.442 for the first, 0.166 for the second.

compound: C[C@@]1(C(=O)Nc2ccc(F)nc2)CCCN1c1nc(Nc2cc(C3CC3)n[nH]2)c2cccn2n1 + CC(C)C[C@H](NC(=O)[C@H](Cc1ccccc1)NC(=O)c1cnccn1)B(O)O [Bortezomib] (partner 0.002 µM); experiment: as above; settings: first compound 0.04 µM
In short: as §1

Going from NCI-H727 to NCI-H1650, the relative viability falls from 0.763 to 0.185.

Going from EBC-1 to NCI-H1703, the relative viability falls from 0.527 to 0.349.

First: NCI-H1993
Second: SW 1573
The relative viability of the first is lower: 0.797 for the first, 0.894 for the second.

Going from NCI-H838 to LCLC-103H, the relative viability rises from 0.807 to 1.07.

First: NCI-H520
Second: NCI-H2126
The relative viability of the first is lower: 0.621 for the first, 1.08 for the second.

First: EMC-BAC-2
Second: NCI-H2085
The relative viability of the first is lower: 0.948 for the first, 1.04 for the second.

First: Calu-6
Second: HCC-366
The relative viability of the first is lower: 1.01 for the first, 1.06 for the second.

Going from NCI-H1666 to NCI-H596, the relative viability rises from 0.678 to 0.908.

First: NCI-H2087
Second: H3255
The relative viability of the first is lower: 0.778 for the first, 0.973 for the second.

First: COR-L23
Second: COR-L 105
The relative viability of the first is higher: 1.06 for the first, 0.709 for the second.

Going from IA-LM to LOU-NH91, the relative viability falls from 0.844 to 0.482.

Going from HCC-44 to NCI-H1299, the relative viability rises from 0.862 to 1.05.

First: NCI-H1792
Second: NCI-H1563
The relative viability of the first is higher: 0.868 for the first, 0.853 for the second.

Cell Line ABC-1 has a relative viability of 0.329.

same assay, conditions: first compound 0.1265 µM

Going from NCI-H727 to NCI-H1650, the relative viability falls from 0.385 to 0.248.

Going from EBC-1 to NCI-H1703, the relative viability falls from 0.509 to 0.328.

Compared with SW 1573, NCI-H838 is higher in relative viability: 0.611 for the first, 0.687 for the second.

First: LCLC-103H
Second: NCI-H520
The relative viability of the first is higher: 1.08 for the first, 0.446 for the second.

Compared with NCI-H2126, EMC-BAC-2 is higher in relative viability: 0.861 for the first, 0.871 for the second.

Going from NCI-H2085 to Calu-6, the relative viability rises from 0.927 to 0.957.

Going from HCC-366 to NCI-H1666, the relative viability falls from 1.04 to 0.434.

First: NCI-H596
Second: NCI-H2087
The relative viability of the first is higher: 0.892 for the first, 0.825 for the second.

First: H3255
Second: COR-L23
The relative viability of the first is higher: 1.02 for the first, 1.01 for the second.

Going from COR-L 105 to IA-LM, the relative viability rises from 0.631 to 0.933.

Compared with LOU-NH91, HCC-44 is higher in relative viability: 0.519 for the first, 0.81 for the second.

Compared with NCI-H1299, NCI-H1792 is lower in relative viability: 0.975 for the first, 0.825 for the second.

First: NCI-H1563
Second: ABC-1
The relative viability of the first is higher: 0.826 for the first, 0.318 for the second.

same assay, conditions: first compound 0.4 µM

Compared with NCI-H727, NCI-H1650 is lower in relative viability: 0.339 for the first, 0.185 for the second.

Compared with EBC-1, NCI-H1703 is lower in relative viability: 0.52 for the first, 0.415 for the second.

Compared with NCI-H1993, SW 1573 is higher in relative viability: 0.615 for the first, 0.7 for the second.

Going from NCI-H838 to LCLC-103H, the relative viability rises from 0.498 to 0.788.

Going from NCI-H520 to NCI-H2126, the relative viability rises from 0.501 to 0.769.

Compared with EMC-BAC-2, NCI-H2085 is higher in relative viability: 0.804 for the first, 0.834 for the second.

Compared with Calu-6, HCC-366 is higher in relative viability: 0.929 for the first, 1 for the second.

Compared with NCI-H1666, NCI-H596 is higher in relative viability: 0.455 for the first, 0.929 for the second.

First: NCI-H2087
Second: H3255
The relative viability of the first is lower: 0.624 for the first, 0.719 for the second.

Compared with COR-L23, COR-L 105 is lower in relative viability: 0.936 for the first, 0.415 for the second.

First: IA-LM
Second: LOU-NH91
The relative viability of the first is higher: 0.807 for the first, 0.481 for the second.

Going from HCC-44 to NCI-H1299, the relative viability rises from 0.648 to 1.03.

First: NCI-H1792
Second: NCI-H1563
The relative viability of the first is lower: 0.651 for the first, 0.73 for the second.

ABC-1 gave a relative viability of 0.264.

same assay, conditions: first compound 1.265 µM

Going from NCI-H727 to NCI-H1650, the relative viability falls from 0.338 to 0.174.

First: EBC-1
Second: NCI-H1703
The relative viability of the first is higher: 0.302 for the first, 0.237 for the second.

Going from NCI-H1993 to SW 1573, the relative viability rises from 0.674 to 0.716.

Compared with NCI-H838, LCLC-103H is higher in relative viability: 0.547 for the first, 0.958 for the second.

First: NCI-H520
Second: NCI-H2126
The relative viability of the first is lower: 0.483 for the first, 0.746 for the second.

First: EMC-BAC-2
Second: NCI-H2085
The relative viability of the first is lower: 0.78 for the first, 0.945 for the second.

First: Calu-6
Second: HCC-366
The relative viability of the first is lower: 0.359 for the first, 0.802 for the second.

Compared with NCI-H1666, NCI-H596 is higher in relative viability: 0.444 for the first, 1 for the second.

First: NCI-H2087
Second: H3255
The relative viability of the first is lower: 0.631 for the first, 0.669 for the second.

First: COR-L23
Second: COR-L 105
The relative viability of the first is higher: 0.583 for the first, 0.373 for the second.

Compared with IA-LM, LOU-NH91 is higher in relative viability: 0.48 for the first, 0.493 for the second.

Going from HCC-44 to NCI-H1299, the relative viability rises from 0.685 to 1.03.

Going from NCI-H1792 to NCI-H1563, the relative viability rises from 0.506 to 0.747.
